The values that follow come from PubChem BioAssay (NCI).

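Growth conditions: 96-well plates. Treatment: test compound, 48 hours, 5 concentrations. Analysis: linear interpolation between bracketing concentrations; unreached endpoints set to highest concentration. The concentration for 50% growth inhibition is given as GI50. At the TGI there is no net growth.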 Bounds are passed on as bounds.

Common to all, as to test: NCI anticancer screen, dose series, 48 h
Assay [1] deals with SF-295 CNS.
The subject of assay [2] is HCC-2998 colon.
Assay [3] relates to EKVX NSCLC.
Assay [4] relates to HOP-92 NSCLC.
For assay [5], the system named is 786-0 renal.
Assay [6] concerns SR leukemia.
The subject of assay [7] is COLO 205 colon.
The subject of assay [8] is MOLT-4 leukemia.
For assay [9], the system named is IGROV1 ovarian.
Assay [10] concerns NCI/ADR-RES ovarian.

For `Cc1ccc(Sc2sc(-c3ccccc3)nc2[P+](c2ccccc2)(c2ccccc2)c2ccccc2)cc1`, the GI50 in assay [1] is 0.243 µM; in assay [2], 0.453 µM; in assay [3], 0.266 µM; in [4], 0.186 µM; in assay [5], 0.381 µM; in assay [6], 0.368 µM. The values for the GI50 in assay [7] and in assay [8] were 0.195 µM and 0.363 µM, respectively. Further, the TGI was 0.722 µM in assay [1]; 1.63 µM in assay [2]; 0.932 µM in [3]; 0.563 µM in [4]; 1.45 µM in assay [5]; 3.77 µM in assay [6]. The TGI came to 0.412 µM in assay [7] and 1.59 µM in [8].

Consider `Cc1c2c(cc3c(=O)ccn(CCN(C)C)c13)c(=O)ccn2CCN(C)C`, for which the TGI in assay [9] turned out to be 37 µM; in [1] it was 25.4 µM; in assay [2], 20.3 µM; in assay [3], 29 µM; in [4] it was 31.3 µM; in assay [5] it was 17.5 µM. Besides, the TGI in assay [6] was found to be 37.6 µM; in [7], 24.7 µM; in [8] it was 13.6 µM.

Regarding `CCSc1nnc(-c2ccc3ccccc3c2O)n1-c1ccc(Cl)cc1`, the GI50 in assay [9] is 4.42 µM; in assay [1] it was 4.24 µM; in assay [10], 4.45 µM; in assay [2], > 100 µM; in assay [4], 9.23 µM; in assay [5] it was 60.3 µM. Moreover, the GI50 was 3.86 µM in [6] and 47.4 µM in assay [7]. Also, the TGI in [9], in assay [1], in assay [10], in [2], in assay [4] and in assay [5] was > 100 µM in each case. In addition, the TGI in assay [6] and in assay [7] was > 100 µM in each case.

As to `COc1cc2c(cn1)[nH]c1ccccc12`, the TGI in assay [9], in assay [1], in [2], in assay [3], in [4] and in assay [5] was > 100 µM throughout. Further, the TGI in assay [6], in assay [7] and in assay [8] was > 100 µM in each case.

Turning to `NNC(=O)/C(NC(=O)c1ccccc1)=C(\N)c1ccc(Cl)cc1`, the TGI in assay [9], in assay [1], in [2], in [3], in assay [4] and in assay [5] was > 100 µM in each case. The TGI in assay [6], in assay [7] and in assay [8] was > 100 µM each time.

For the compound `O=C1CS/C(=N\S(=O)(=O)c2ccc(N3N=C4c5ccccc5CC4C3c3ccc(Cl)cc3)cc2)N1c1ccccc1` (centres undefined), the GI50 is 37.8 µM in assay [9]; 35.8 µM in assay [1]; 43.2 µM in [3]; 27 µM in assay [4]; 46.6 µM in [5]; 11.4 µM in [6]. Moreover, the GI50 in assay [7] was 1.73 µM; in assay [8], 17.2 µM. Besides, the TGI in assay [9] is > 100 µM; in [1], 98.7 µM; in assay [3] it was > 100 µM; in assay [4], > 100 µM; in assay [5] it was > 100 µM; in assay [6], 28.1 µM. For the same compound, the TGI worked out at 16 µM in assay [7] and 40.7 µM in assay [8].

For the compound `S=c1nc(N2CCCCC2)ss1`, the TGI stood at 58.5 µM in [9]; 81.4 µM in [1]; 30 µM in assay [2]; 55.8 µM in assay [3]; 36.7 µM in [4]; 48.1 µM in [5]. Also, the TGI is 45.4 µM in assay [6] and 33.3 µM in assay [8].

In the case of `C=C1C(=O)OC2CC(C)C3C=CC(=O)C3CC12` (centres undefined), the TGI is 13.2 µM in assay [9]; 28.9 µM in [1]; 16.5 µM in assay [2]; 26.3 µM in [3]; 4.04 µM in assay [4]; 3.66 µM in assay [5]. Further, the values for the TGI in assay [6], in assay [7] and in assay [8] were 4.53 µM, 3.34 µM and 4.68 µM, respectively.

In the case of `C=CC1=C(C)C2=NC1=CC1=NC(=CC3=C(C)C4=C(O)C(C(=O)OC)C(=C5NC(=C2)C(C)C5CCC(=O)OC)C4=N3)C(CC)=C1C` (centres undefined), the TGI in [9], in assay [1], in assay [2], in assay [3], in assay [4] and in assay [5] was > 100 µM throughout. For the same compound, the TGI in [6] and in [7] was > 100 µM in each case.

Regarding `CCOC(=O)/C(=C\c1ccc[nH]1)C(=O)c1ccccc1`, the TGI in assay [1], in assay [2], in [3], in assay [4], in [5] and in assay [6] was > 100 µM each time. Further, the TGI in assay [7] and in assay [8] was > 100 µM throughout.

For the compound `O=c1c2cccnc2ncn1CCN1CCCC1`, the TGI in assay [9], in [1], in assay [2], in assay [3], in [4] and in assay [5] was > 100 µM in each case. Further, the TGI in assay [6], in assay [7] and in [8] was > 100 µM each time.

Turning to `CCC(C(=O)c1ccccc1)C(CCCC(=O)Nc1c(C)cccc1C)N=O` (centres undefined), the TGI in [9], in [1], in assay [2], in [3], in assay [4] and in assay [5] was > 100 µM each time. Moreover, the TGI in [6], in [7] and in [8] was > 100 µM in each case.

For `OCc1ccc(N(CCN2CCCC2)Cc2ccc(F)cc2)cc1Cl`, the GI50 in assay [9] was 3.27 µM; in assay [10] it was 18.2 µM; in [2] it was 10.7 µM; in [5], 21 µM; in [6], 16.1 µM; in assay [7], 8.66 µM. Further, the GI50 in [8] is 25.2 µM. Also, the TGI in [9] was found to be 16.8 µM; in [10] it was 44.3 µM; in [2], 23.8 µM; in [5] it was 66 µM; in assay [6] it was 44.8 µM; in assay [7] it was 21.5 µM. In addition, the TGI in assay [8] came to 62.7 µM.

`CCOP(=O)(OCC)C1=NC=CC=CC1n1c(-c2ccccc2)nn(CC)c1=O` (centres undefined): the TGI in assay [9], in assay [1], in assay [2], in [3], in assay [4] and in assay [5] was > 100 µM each time. Also, the TGI in assay [6], in [7] and in [8] was > 100 µM each time.

Consider `CC(C)C(=O)/C=C/c1ccc(Cl)c(Cl)c1`, for which the TGI in [9] was found to be 40.4 µM; in [1], 29.4 µM; in assay [2], 33.2 µM; in assay [3], 51.4 µM; in assay [4], 34.7 µM; in [5], 27.6 µM. The TGI in assay [6] was 56.8 µM; in [7] it was 52.3 µM; in assay [8], > 100 µM.

As for `COc1cc(/C=C(\OC(C)=O)c2ccc3c(c2)OCO3)cc(OC)c1OC`, the TGI in [9] is 33.1 µM; in assay [1], 98.6 µM; in assay [2] it was > 100 µM; in assay [3], 54.9 µM; in [4], 45.4 µM; in assay [5] it was > 100 µM. The TGI in assay [6] was > 100 µM; in assay [7], 51.5 µM; in [8], 43.4 µM. The GI50 in assay [2] is > 100 µM.

In the case of `CC1(C)CC2(C)CC1CC2NC(=O)CCN1CCOCC1` (centres undefined), the TGI in assay [9], in assay [1], in [2], in [3], in assay [4] and in assay [5] was > 100 µM throughout. In addition, the TGI in [6], in [7] and in assay [8] was > 100 µM throughout.

Take `O=C(NCc1ccncc1)C1COc2cc(-c3cc(=O)c4ccccc4o3)ccc2O1` (centres undefined): the TGI in assay [9], in assay [1], in assay [2], in assay [3], in assay [4] and in assay [5] was > 100 µM throughout. Further, the TGI in assay [6] and in assay [8] was > 100 µM each time.

For `N#CC1C2CCC3(CC2CCN1C(=O)c1ccccc1)OCCO3` (centres undefined), the TGI in assay [9], in assay [1], in [2], in assay [3], in assay [4] and in assay [5] was > 100 µM in each case. Moreover, the TGI in [6], in assay [7] and in [8] was > 100 µM in each case.
